Test results as given in paper PMC9090415, “Discovery of small molecule inhibitors of Plasmodium falciparum apicoplast DNA polymerase” (Journal of Enzyme Inhibition and Medicinal Chemistry, 2022).
Where two headings read alike, the source gives them in different places.

Biological target: P. falciparum apicoplast DNA polymerase (Pf-apPOL) (Plasmodium falciparum, UniProt Q8ILY1)
Test: Fluorescence-based high-throughput DNA polymerase assay (molecular beacon), primary screen and dose-response
Assay type: biochemical
Conditions: for DNA Pol: 90 min, 10 µM
In short: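 Single-point screening used 10 µM compound with 20 nM polymerase, 20 nM hairpin substrate and 6 µM dNTPs for 90 min at 25 °C. Confirmatory titrations (2.5–80 µM) followed fluorescence at three times, and IC50 was derived from a fit including a cooperativity term n.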

Sequence of P. falciparum apicoplast DNA polymerase (Pf-apPOL) (Q8ILY1 entry or part of it): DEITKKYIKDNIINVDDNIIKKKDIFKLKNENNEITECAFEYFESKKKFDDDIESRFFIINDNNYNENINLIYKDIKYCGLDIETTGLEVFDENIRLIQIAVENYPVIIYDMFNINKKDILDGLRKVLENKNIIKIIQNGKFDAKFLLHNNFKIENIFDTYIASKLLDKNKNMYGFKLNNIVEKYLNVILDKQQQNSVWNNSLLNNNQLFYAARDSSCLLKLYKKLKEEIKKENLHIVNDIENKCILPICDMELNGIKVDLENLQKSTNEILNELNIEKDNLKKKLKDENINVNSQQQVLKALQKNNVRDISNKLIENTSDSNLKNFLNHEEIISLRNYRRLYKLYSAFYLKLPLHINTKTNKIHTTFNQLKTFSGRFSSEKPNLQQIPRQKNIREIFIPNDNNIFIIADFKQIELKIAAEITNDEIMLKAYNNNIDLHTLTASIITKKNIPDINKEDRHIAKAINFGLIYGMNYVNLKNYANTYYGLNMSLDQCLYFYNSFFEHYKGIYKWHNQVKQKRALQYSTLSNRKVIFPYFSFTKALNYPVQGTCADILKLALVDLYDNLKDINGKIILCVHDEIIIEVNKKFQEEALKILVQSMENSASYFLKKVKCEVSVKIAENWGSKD

**Q.** Which “DNA Pol” value ('DNA Pol' of the 186 hits list (primary screen value)) does the source give for `O=C1N=C(Nc2cccc(Cl)c2Cl)S/C1=C\c1ccco1` [Molecule 3, O=C1N=C(S/C/1=C\c1ccco1)Nc1cccc(c1Cl)Cl] here?
**A.** The value was 74.

**Q.** And the “DNA Pol” value (DNA Pol (primary screen value))?
**A.** Its value is 74.

**Q.** What about the “% inhibition Apo pol 10'” value (DRC-1, concentration 2.5) of the same compound?
**A.** Its value is 26.4621%.

**Q.** And the “% inhibition Apo pol 10'” value (DRC-1, concentration 5)?
**A.** The value was 50.3585%.

**Q.** And the “% inhibition Apo pol 10'” value (DRC-1, concentration 10)?
**A.** The value was 71.7156%.

**Q.** What about the “% inhibition Apo pol 10'” value (DRC-1, concentration 20) of the same compound?
**A.** Its value is 70.1447%.

**Q.** And the “% inhibition Apo pol 10'” value (DRC-1, concentration 40)?
**A.** The value was 64.4851%.

**Q.** What about the “% inhibition Apo pol 10'” value (DRC-1, concentration 80) of the same compound?
**A.** Its value is 49.9988%.

**Q.** And the “% inhibition Apol 90'” value (DRC-1, concentration 2.5)?
**A.** The value was 14.8677%.

**Q.** What about the “% inhibition Apol 90'” value (DRC-1, concentration 5) of the same compound?
**A.** Its value is 38.7366%.

**Q.** And the “% inhibition Apol 90'” value (DRC-1, concentration 10)?
**A.** The value was 64.2373%.

**Q.** And the “% inhibition Apol 90'” value (DRC-1, concentration 20)?
**A.** The value was 68.803%.

**Q.** What about the “% inhibition Apol 90'” value (DRC-1, concentration 40) of the same compound?
**A.** The value was 72.5757%.

**Q.** And the “% inhibition Apol 90'” value (DRC-1, concentration 80)?
**A.** Its value is 68.4026%.

**Q.** And the “% inhibition apPOL 180'” value (DRC-1, concentration 2.5)?
**A.** Its value is 3.99%.

**Q.** What about the “% inhibition apPOL 180'” value (DRC-1, concentration 5) of the same compound?
**A.** The value was 24.8255%.

**Q.** What about the “% inhibition apPOL 180'” value (DRC-1, concentration 10) of the same compound?
**A.** Its value is 52.4106%.

**Q.** And the “% inhibition apPOL 180'” value (DRC-1, concentration 20)?
**A.** The value was 60.3634%.

**Q.** What about the “% inhibition apPOL 180'” value (DRC-1, concentration 40) of the same compound?
**A.** Its value is 70.3618%.

**Q.** And the “% inhibition apPOL 180'” value (DRC-1, concentration 80)?
**A.** Its value is 71.4479%.

**Q.** What about the “% inhibition Apo pol 5'” value (DRC-2, concentration 2.5) of the same compound?
**A.** Its value is 35%.

**Q.** And the “% inhibition Apo pol 5'” value (DRC-2, concentration 5)?
**A.** Its value is 38%.

**Q.** And the “% inhibition Apo pol 5'” value (DRC-2, concentration 10)?
**A.** Its value is 42%.

**Q.** And the “% inhibition Apo pol 5'” value (DRC-2, concentration 20)?
**A.** Its value is 31%.

**Q.** And the “% inhibition Apo pol 5'” value (DRC-2, concentration 40)?
**A.** The value was 11%.

**Q.** And the “% inhibition Apo pol 5'” value (DRC-2, concentration 80)?
**A.** The value was -21%.

**Q.** And the “% inhibition Apol 40'” value (DRC-2, concentration 2.5)?
**A.** The value was 37%.

**Q.** What about the “% inhibition Apol 40'” value (DRC-2, concentration 5) of the same compound?
**A.** Its value is 44%.

**Q.** What about the “% inhibition Apol 40'” value (DRC-2, concentration 10) of the same compound?
**A.** Its value is 58%.

**Q.** And the “% inhibition Apol 40'” value (DRC-2, concentration 20)?
**A.** The value was 56%.

**Q.** And the “% inhibition Apol 40'” value (DRC-2, concentration 40)?
**A.** The value was 44%.

**Q.** What about the “% inhibition Apol 40'” value (DRC-2, concentration 80) of the same compound?
**A.** Its value is 25%.

**Q.** What about the “% inhibition ApPOL 90'” value (DRC-2, concentration 2.5) of the same compound?
**A.** The value was 34%.

**Q.** And the “% inhibition ApPOL 90'” value (DRC-2, concentration 5)?
**A.** Its value is 42%.

**Q.** What about the “% inhibition ApPOL 90'” value (DRC-2, concentration 10) of the same compound?
**A.** Its value is 59%.

**Q.** And the “% inhibition ApPOL 90'” value (DRC-2, concentration 20)?
**A.** The value was 60%.

**Q.** And the “% inhibition ApPOL 90'” value (DRC-2, concentration 40)?
**A.** The value was 53%.

**Q.** What about the “% inhibition ApPOL 90'” value (DRC-2, concentration 80) of the same compound?
**A.** Its value is 40%.

**Q.** And the “% inhibition apPOL 180'” value (DRC-2, concentration 2.5)?
**A.** The value was 22%.

**Q.** And the “% inhibition apPOL 180'” value (DRC-2, concentration 5)?
**A.** The value was 31%.

**Q.** What about the “% inhibition apPOL 180'” value (DRC-2, concentration 10) of the same compound?
**A.** The value was 54%.

**Q.** And the “% inhibition apPOL 180'” value (DRC-2, concentration 20)?
**A.** Its value is 62%.

**Q.** And the “% inhibition apPOL 180'” value (DRC-2, concentration 40)?
**A.** Its value is 60%.

**Q.** What about the “% inhibition apPOL 180'” value (DRC-2, concentration 80) of the same compound?
**A.** Its value is 53%.

**Q.** How did the IC50 (read-out: IC50 Pf-apPOL, Table 2) turn out when `OC(C#Cc1ccccc1)c1ccco1` (stereo not shown) [Molecule 95] was run?
**A.** Its IC50 is 7.4 ± 0.4 µM.

**Q.** And the IC50 (supplemental file 2, sheet IC50 nontoxic compounds, Pf-apPOL)?
**A.** The IC50 was 7.4 µM.
